Drawing on ChEMBL document CHEMBL1147247, “New cytotoxic sesterterpenoids and norsesterterpenoids from two sponges of the genus Sarcotragus” (2003), this text covers EC50 for seven molecules.

In brackets after ≈: the same amount, converted by molar mass. Some results are limits rather than exact numbers.

Common to all, as to format: functional
Holding throughout (conditions): read-out: ED50 (the source's name)

In one assay the test system is A549. Put plainly: Cytotoxicity against human A549 cells.
In another assay the test system is SK-OV-3. Description: Cytotoxicity against human SKOV3 cells.
The subject of a further assay is SK-MEL-2. Description: Cytotoxicity against human SK-MEL-2 cells.
Another assay relates to XF498. Description: Cytotoxicity against human XF498 cells.
The next assay concerns HCT-15. Description: Cytotoxicity against human HCT15 cells.

With `CC(=O)C(O)C(O)C/C(C)=C\CC[C@H](C)/C=C/C=C(\C)CCCC1=CC(=O)OC1O` (stereo not given in full) [SARCOTIN O], the EC50 in the assay with A549 amounted to 6.8 µg/mL (≈ 16.2 µM); in the assay on SK-OV-3 it was 14.9 µg/mL (≈ 35.4 µM); with SK-MEL-2, 3 µg/mL (≈ 7.13 µM); in the assay on XF498 it was 11.5 µg/mL (≈ 27.3 µM); with HCT-15, 4.6 µg/mL (≈ 10.9 µM).

Regarding `COc1cccc2c1C(=O)c1c(O)c3c(c(O)c1C2=O)C[C@@](O)(C(=O)CO)C[C@@H]3O[C@H]1C[C@H](N)[C@H](O)[C@H](C)O1` [DOXORUBICIN], the EC50 in the assay with A549 was 0.04 µg/mL (≈ 0.0736 µM); in the assay with SK-OV-3 it was 0.15 µg/mL (≈ 0.276 µM); with SK-MEL-2, 0.06 µg/mL (≈ 0.11 µM); with XF498, 0.19 µg/mL (≈ 0.35 µM); in the assay with HCT-15, 0.24 µg/mL (≈ 0.442 µM).

`CC1=C(O)[C@@H](C/C(C)=C\CC[C@H](C)/C=C/C=C(\C)CCCC2=CCN(CC(=O)[O-])C2=O)OC1=O.[Na+]` [SARCOTRINE E]: the EC50 in the assay with A549, in the assay on SK-OV-3, in the assay on SK-MEL-2, in the assay on XF498 and with HCT-15 was over 30 µg/mL throughout.

For `COC(=O)[C@H](O)C/C(C)=C\CC[C@H](C)/C=C/C=C(\C)CCCC1=CC(=O)O[C@H]1O` [SARCOTIN N], the EC50 with A549 was 19.4 µg/mL (≈ 47.7 µM); with SK-OV-3, over 30 µg/mL; in the assay on SK-MEL-2, 10.9 µg/mL (≈ 26.8 µM); in the assay on XF498, over 30 µg/mL; with HCT-15, 21.7 µg/mL (≈ 53.4 µM).

Regarding `COC1C=C(CCC/C(C)=C/C=C/[C@@H](C)CC/C=C(/C)C[C@H]2OC(=O)C(C)=C2O)C(=O)O1` (stereo not given in full), the EC50 with A549 is over 30 µg/mL; in the assay on SK-OV-3 it was over 30 µg/mL; with SK-MEL-2 it was 10.9 µg/mL (≈ 24.5 µM); in the assay with XF498, over 30 µg/mL; with HCT-15, 33 µg/mL (≈ 74.2 µM).

For the molecule `C/C(=C\CCc1ccoc1)C[C@@H]1C=C(C/C=C/c2ccoc2)C(=O)O1`, the EC50 in the assay on A549 was 7.9 µg/mL (≈ 23.3 µM); with SK-OV-3 it was 32.3 µg/mL (≈ 95.4 µM); in the assay with SK-MEL-2, 4.5 µg/mL (≈ 13.3 µM); with XF498, 11.8 µg/mL (≈ 34.9 µM); with HCT-15 it was 4.2 µg/mL (≈ 12.4 µM).

In the case of `CC1=C(O)[C@@H](C/C(C)=C\CC[C@H](C)/C=C/C=C(\C)CCCC2=CC(=O)N(CC(=O)[O-])C2)OC1=O.[Na+]` [ISOSARCOTRINE E], the EC50 in the assay on A549, in the assay on SK-OV-3, with SK-MEL-2, in the assay with XF498 and in the assay with HCT-15 was over 30 µg/mL throughout.
